Experimental data reported in patent US20240368127A1, “HSD17B13 INHIBITORS AND USES THEREOF” (FL2022-001, Inc., priority 2021, published 2024).

biological target: T1, Recombinant human HSD17B13 enzyme (Homo sapiens, UniProt Q7Z5P4); experiment: HSD17b13 NAD(P)H-Glo biochemical assay; details: 50 μM estradiol, 1 mM NAD+, 37° C. for 3 hours; read-out: HSD17β13 IC50
T1 sequence (Q7Z5P4 20-300): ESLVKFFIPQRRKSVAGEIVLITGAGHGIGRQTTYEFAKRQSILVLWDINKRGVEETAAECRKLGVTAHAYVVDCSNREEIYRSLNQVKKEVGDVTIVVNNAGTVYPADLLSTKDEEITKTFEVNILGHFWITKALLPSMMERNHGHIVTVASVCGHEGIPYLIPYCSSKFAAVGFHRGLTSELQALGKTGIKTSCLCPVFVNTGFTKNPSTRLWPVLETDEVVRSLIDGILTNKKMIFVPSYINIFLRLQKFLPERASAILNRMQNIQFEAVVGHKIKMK
Protocol: Example B-1: HSD17b13 NAD (P) H-Glo Biochemical Assay
Recombinant human HSD17B13 enzyme. Substrate: estradiol (Sigma β-Estradiol E8875), 100 mM in DMSO. Cofactor: NAD+ Grade I free acid (Sigma 10127965001), 20 mM in H2O. Assay buffer final concentration: 20 mM Tris pH7.4 with 0.002% Tween-20 and 0.02% BSA. Assay performed in 384 well solid bottom plate (Corning 3570). Enzymatic activity detected by NAD (P) H-Glo™ Detection System (Promega G9062).
Inhibitor compounds were serially diluted in DMSO and then further diluted in assay buffer to a 10× concentration consisting of 1% DMSO.
HSD17b13 enzyme was diluted in 1× assay buffer to the desired enzyme concentration based on the specific activity of the enzyme lot. 20 μL of diluted enzyme was added to each well along with 2.5 μL of 10× inhibitor solution. Assay plate was incubated at RT for 20 minutes, and then 2.5 μL of a 10× substrate/cofactor mix was added to each well for a final concentration of 50 μM estradiol and 1 mM NAD+. Assay plate was incubated at 37° C. for 3 hours. NAD (P) H-Glo™ Detection System reagents were prepared according to manufacturer's specifications, and 25 μL was added to each well. After incubating for 1 hour at RT, luminescence was measured.

Row | Compound | IC50 [nM]
1 | Cc1nn(-c2cc(C(F)(F)F)c(F)c(O)c2F)c2cnc(N3CCN(S(C)(=O)=O)C[C@H]3Cc3ccccc3)cc12 [Compound 2.02, (R)-3-(5-(2-Benzyl-4-(methylsulfonyl)piperazin-1-yl)-3-methyl-1H-pyrazolo[3,4-c]pyridin-1-yl)-2,6-difluoro-5-(trifluoromethyl)phenol] | ≤ 100
2 | Cn1nc(-c2cc(C(F)(F)F)c(F)c(O)c2F)c2cnc(N3CCCCC3Cc3ccccc3)nc21 (stereo not drawn) [Compound 5.32, 3-(6-(2-Benzylpiperidin-1-yl)-1-methyl-1H-pyrazolo[3,4-d]pyrimidin-3-yl)-2,6-difluoro-5-(trifluoromethyl)phenol] | ≤ 100
3 | Cn1nc(-c2cc(C(F)(F)F)c(F)c(O)c2F)c2cnc(N3CCOCC3Cc3ccccn3)nc21 (stereo not drawn) [Compound 15.06, 2,6-Difluoro-3-(1-methyl-6-(3-(pyridin-2-ylmethyl)morpholino)-1H-pyrazolo[3,4-d]pyrimidin-3-yl)-5-(trifluoromethyl)phenol] | ≤ 100
4 | Cn1nc(-c2cc(C(F)(F)F)c(F)c(O)c2F)c2cnc(N3CCN(S(C)(=O)=O)C[C@@H]3Cc3ccccc3)nc21 [Compound 5.06, (S)-3-(6-(2-Benzyl-4-(methylsulfonyl)piperazin-1-yl)-1-methyl-1H-pyrazolo[3,4-d]pyrimidin-3-yl)-2,6-difluoro-5-(trifluoromethyl)phenol] | ≤ 100
5 | Cn1nc(-c2cc(C(F)(F)F)c(F)c(O)c2F)c2cnc(N3CCO[C@@H](Cc4cccc(C(N)=O)c4)C3)nc21 [Compound 12.05, (S)-3-((4-(3-(2,4-Difluoro-3-hydroxy-5-(trifluoromethyl)phenyl)-1-methyl-1H-pyrazolo[3,4-d]pyrimidin-6-yl)morpholin-2-yl)methyl)benzamide] | ≤ 100
6 | Cn1nc(-c2cc(C(F)(F)F)c(F)c(O)c2F)c2cnc(N3CCN(S(C)(=O)=O)[C@@H](Cc4ccccc4)C3)nc21 [Compound 5.14, (S)-3-(6-(3-Benzyl-4-(methylsulfonyl)piperazin-1-yl)-1-methyl-1H-pyrazolo[3,4-d]pyrimidin-3-yl)-2,6-difluoro-5-(trifluoromethyl)phenol] | ≤ 100
7 | Cn1nc(-c2cc(C(F)(F)F)c(F)c(O)c2F)c2cnc(NC3(Cc4ccccc4)CCC3)nc21 [Compound 5.27, 3-(6-((1-Benzylcyclobutyl)amino)-1-methyl-1H-pyrazolo[3,4-d]pyrimidin-3-yl)-2,6-difluoro-5-(trifluoromethyl)phenol] | ≤ 100
8 | Cn1nc(-c2cc(C(F)(F)F)c(F)c(O)c2F)c2cnc(N3CCN(S(C)(=O)=O)C[C@H]3CC3CCCCC3)nc21 [Compound 15.02, (R)-3-(6-(2-(Cyclohexylmethyl)-4-(methylsulfonyl)piperazin-1-yl)-1-methyl-1H-pyrazolo[3,4-d]pyrimidin-3-yl)-2,6-difluoro-5-(trifluoromethyl)phenol] | ≤ 100
9 | Cn1nc(-c2cc(C(F)(F)F)c(F)c(O)c2F)c2cnc(N3CCCCC3Cc3ccccn3)nc21 (stereo not drawn) [Compound 5.11, 2,6-Difluoro-3-(1-methyl-6-(2-(pyridin-2-ylmethyl)piperidin-1-yl)-1H-pyrazolo[3,4-d]pyrimidin-3-yl)-5-(trifluoromethyl)phenol] | ≤ 100
10 | Cn1nc(-c2cc(C(F)(F)F)c(F)c(O)c2F)c2cnc(N3CCOC[C@@H]3CC3CCCCC3)nc21 [Compound 15.05, (S)-3-(6-(3-(Cyclohexylmethyl)morpholino)-1-methyl-1H-pyrazolo[3,4-d]pyrimidin-3-yl)-2,6-difluoro-5-(trifluoromethyl)phenol] | ≤ 100
11 | Cc1nn(-c2cc(C(F)(F)F)cc(O)c2F)c2cnc(N3CCOC(Cc4ccccc4)C3)cc12 (stereo not drawn) [Compound 2.05, 3-(5-(2-Benzylmorpholino)-3-methyl-1H-pyrazolo[3,4-c]pyridin-1-yl)-2-fluoro-5-(trifluoromethyl)phenol] | 100 to 1000
12 | Cc1nn(-c2cc(C(F)(F)F)c(F)c(O)c2F)c2cnc(N3CCOC[C@H]3Cc3ccccc3)nc12 [Compound 2.31, (R)-3-(5-(3-Benzylmorpholino)-3-methyl-1H-pyrazolo[4,3-d]pyrimidin-1-yl)-2,6-difluoro-5-(trifluoromethyl)phenol] | ≤ 100
13 | Cn1nc(-c2cc(C(F)(F)F)c(F)c(O)c2F)c2cnc(N3CCCC[C@H]3Cc3ccccc3)nc21 [Compound 5.16, (S)-3-(6-(2-Benzylpiperidin-1-yl)-1-methyl-1H-pyrazolo[3,4-d]pyrimidin-3-yl)-2,6-difluoro-5-(trifluoromethyl)phenol] | ≤ 100
14 | CN(C)C(=O)N1CCN(c2ncc3c(-c4cc(C(F)(F)F)c(F)c(O)c4F)nn(C)c3n2)C(CC2CC2)C1 (stereo not drawn) [Compound 11.21, 3-(Cyclopropylmethyl)-4-(3-(2,4-difluoro-3-hydroxy-5-(trifluoromethyl)phenyl)-1-methyl-1H-pyrazolo[3,4-d]pyrimidin-6-yl)-N,N-dimethylpiperazine-1-carboxamide] | ≤ 100
15 | Cn1nc(-c2cc(C(F)(F)F)c(F)c(O)c2F)c2cnc(N3CCOC[C@H]3C(=O)NC3CCCCC3)nc21 [Compound 11.25, (S)-N-Cyclohexyl-4-(3-(2,4-difluoro-3-hydroxy-5-(trifluoromethyl)phenyl)-1-methyl-1H-pyrazolo[3,4-d]pyrimdiin-6-yl)morpholine-3-carboxamide] | ≤ 100
16 | Cc1nn(-c2cc(C(F)(F)F)c(F)c(O)c2F)c2ccc(N3CCN(S(C)(=O)=O)C[C@H]3Cc3ccccc3)cc12 [Compound 2.13, (R)-3-(5-(2-Benzyl-4-(methylsulfonyl)piperazin-1-yl)-3-methyl-1H-indazol-1-yl)-2,6-difluoro-5-(trifluoromethyl)phenol] | ≤ 100
17 | CCn1nc(-c2cc(C(F)(F)F)c(F)c(O)c2F)c2cnc(N3CCOC[C@H]3Cc3ccccc3)nc21 [Compound 15.12, (R)-3-(6-(3-Benzylmorpholino)-1-ethyl-1H-pyrazolo[3,4-d]pyrimidin-3-yl)-2,6-difluoro-5-(trifluoromethyl)phenol] | ≤ 100
18 | Cc1nn(-c2cc(O)cc(C(F)(F)F)c2)c2ccc(N3CCN(S(C)(=O)=O)C[C@H]3Cc3ccccc3)cc12 [Compound 2.26, (R)-3-(5-(2-Benzyl-4-(methylsulfonyl)piperazin-1-yl)-3-methyl-1H-indazol-1-yl)-5-(trifluoromethyl)phenol] | 100 to 1000
19 | Cn1nc(-c2cc(C(F)(F)F)c(F)c(O)c2F)c2cnc(N3CCN(S(C)(=O)=O)C(CC4CC4)C3)nc21 (stereo not drawn) [Compound 5.33, 3-(6-(3-(Cyclopropylmethyl)-4-(methylsulfonyl)piperazin-1-yl)-1-methyl-1H-pyrazolo[3,4-d]pyrimidin-3-yl)-2,6-difluoro-5-(trifluoromethyl)phenol] | ≤ 100
20 | Oc1c(F)cc2nnn(-c3ccc(N4CC[C@@H](Cc5ccccc5)C4)cc3)c2c1F [Compound 1.06, (R)-1-(4-(3-Benzylpyrrolidin-1-yl)phenyl)-5,7-difluoro-1H-benzo[d][1,2,3]triazol-6-ol] | ≤ 100
21 | Cn1nc(-c2cc(C(F)(F)F)c(F)c(O)c2F)c2cnc(N3CCOC[C@H]3Cc3cccc(F)c3)nc21 [Compound 5.24, (R)-2,6-Difluoro-3-(6-(3-(3-fluorobenzyl)morpholino)-1-methyl-1H-pyrazolo[3,4-d]pyrimidin-3-yl)-5-(trifluoromethyl)phenol] | ≤ 100
